From PubChem BioAssay (NCI) come the findings set out here.

Among the test systems are DMS 273 small cell lung; HCT-116 colon; HOP-18 NSCLC; LXFL 529 NSCLC; M14 melanoma; M19-MEL melanoma; NCI-H522 lung; OVCAR-8 ovarian; SF-295 CNS; SNB-78 CNS; XF 498 CNS; DLD-1 colon; BT-549 breast; MDA-N.
Test in all cases: NCI-60 cell line screen, 48 h

The structures appear in SMILES notation. Several values for one entry are separate records, joined by “and”; a condition that tells them apart may be missing. Equal values may be shown once.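 How tested: cells in 96-well plates exposed to compound for 48 hours at five concentrations. Abbreviation: GI50, concentration required for 50% inhibition of growth. The concentration for full growth arrest is given as TGI.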

As to `O=C(CSc1nnc(-c2ccc(N=Cc3ccc(Cl)cc3)cc2)o1)Nc1ccc([N+](=O)[O-])cc1`, the TGI is 30.4 µM in the experiment on DMS 273 small cell lung; 9.43 µM with HCT-116 colon; greater than 100 µM in the experiment with HOP-18 NSCLC; 35.9 µM in the experiment with LXFL 529 NSCLC; 42 µM in the experiment on M14 melanoma; 36.9 µM in the experiment on M19-MEL melanoma. The TGI in the experiment on NCI-H522 lung was 38.3 µM; in the experiment with OVCAR-8 ovarian, greater than 100 µM; in the experiment on SF-295 CNS, 79.4 µM; in the experiment on SNB-78 CNS, 84.4 µM; in the experiment with XF 498 CNS, 47.1 µM.

In the case of `COc1cccc(-c2nccc3c(OCc4ccccc4)c(OC)c(OC)cc23)c1`, the TGI in the experiment with DLD-1 colon, in the experiment with DMS 273 small cell lung, with HCT-116 colon, with LXFL 529 NSCLC, with M14 melanoma and with M19-MEL melanoma was greater than 100 µM each time. The TGI in the experiment on NCI-H522 lung, with OVCAR-8 ovarian, with SF-295 CNS, in the experiment on SNB-78 CNS and with XF 498 CNS was greater than 100 µM throughout.

For the molecule `CCCCn1c2ccccc2c2ccc3c(c21)C(=O)C=CC3=O`, the TGI in the experiment on DLD-1 colon, in the experiment with DMS 273 small cell lung, in the experiment on HCT-116 colon, with HOP-18 NSCLC, with LXFL 529 NSCLC and in the experiment with M14 melanoma was greater than 100 µM throughout. For the same molecule, the TGI was 1.04 µM in the experiment with M19-MEL melanoma; greater than 100 µM with NCI-H522 lung; greater than 100 µM with OVCAR-8 ovarian; greater than 100 µM with SF-295 CNS; greater than 100 µM with SNB-78 CNS.

Regarding `Cn1ccnc1CCc1ccc(Cl)c(Cl)c1`, the TGI in the experiment with DLD-1 colon, with DMS 273 small cell lung, in the experiment with HCT-116 colon, in the experiment on HOP-18 NSCLC, in the experiment on LXFL 529 NSCLC and with M14 melanoma was greater than 100 µM throughout. Further, the TGI with M19-MEL melanoma, with NCI-H522 lung, with OVCAR-8 ovarian, in the experiment with SF-295 CNS and in the experiment on SNB-78 CNS was greater than 100 µM each time.

For the molecule `CCN(CC)CCOC(=O)Cc1cccc2c(=O)cc(-c3ccccc3)oc12`, the TGI is 61.7 µM with BT-549 breast; greater than 195 µM with DLD-1 colon; greater than 625 µM in the experiment with DMS 273 small cell lung; 62.5 µM and > 153 µM in the experiment on HCT-116 colon; greater than 126 µM in the experiment on HOP-18 NSCLC; 62.5 µM with M14 melanoma. Further, the TGI in the experiment with M19-MEL melanoma is greater than 223 µM; in the experiment on MDA-N it was 62.5 µM; in the experiment on NCI-H522 lung, 62.5 µM and > 154 µM; in the experiment on OVCAR-8 ovarian, 62.5 µM and > 254 µM; in the experiment with SF-295 CNS, 62.5 µM and > 141 µM; in the experiment on SNB-78 CNS, greater than 175 µM. In addition, in the experiment with XF 498 CNS, the TGI was 82.6 µM. Also, the GI50 with HCT-116 colon was 85.1 µM; in the experiment with NCI-H522 lung, 72.8 µM; in the experiment with SF-295 CNS it was 19.2 µM.

`Cc1c(-c2nnc(-c3ccccc3)o2)c(=O)n(-c2ccccc2)n1C`: the TGI in the experiment on DLD-1 colon, with DMS 273 small cell lung, with HCT-116 colon, in the experiment with HOP-18 NSCLC, in the experiment with LXFL 529 NSCLC and with M14 melanoma was greater than 100 µM each time. Also, the TGI with M19-MEL melanoma, in the experiment on NCI-H522 lung, in the experiment with OVCAR-8 ovarian, with SF-295 CNS, in the experiment with SNB-78 CNS and in the experiment with XF 498 CNS was greater than 100 µM throughout.

`CN(C)c1ccc(/C=C/C(=O)O)cc1`: the TGI in the experiment with DLD-1 colon, in the experiment with HCT-116 colon, with HOP-18 NSCLC, with LXFL 529 NSCLC, in the experiment on M14 melanoma and in the experiment on M19-MEL melanoma was greater than 100 µM each time. In addition, the TGI with NCI-H522 lung, with OVCAR-8 ovarian, with SF-295 CNS, in the experiment with SNB-78 CNS and in the experiment with XF 498 CNS was greater than 100 µM in each case.

Consider `C[n+]1c2ccccc2c(/C=N\NS(=O)(=O)c2ccc(Cl)cc2)c2ccccc21`, for which the TGI with DLD-1 colon, with DMS 273 small cell lung, in the experiment on HCT-116 colon, in the experiment on M14 melanoma, in the experiment with M19-MEL melanoma and with NCI-H522 lung was greater than 100 µM in each case. The TGI in the experiment on OVCAR-8 ovarian, with SF-295 CNS, with SNB-78 CNS and in the experiment on XF 498 CNS was greater than 100 µM each time.

As for `O=[N+]([O-])c1ccc([N+]2=NC(c3ccccc3)=NN(c3ccccc3)C2)cc1`, the TGI with DLD-1 colon, in the experiment on DMS 273 small cell lung, in the experiment with HCT-116 colon, in the experiment on HOP-18 NSCLC, in the experiment on LXFL 529 NSCLC and in the experiment with M14 melanoma was greater than 100 µM in each case. In addition, the TGI in the experiment with M19-MEL melanoma was greater than 100 µM; in the experiment on NCI-H522 lung, greater than 100 µM; with OVCAR-8 ovarian it was greater than 100 µM; with SF-295 CNS, greater than 100 µM; in the experiment on SNB-78 CNS, greater than 100 µM; in the experiment with XF 498 CNS, 58.9 µM.

On to `CCN(CC)CCOc1ccc(C(O)(Cc2ccc(OC)cc2)c2ccccc2)cc1` (stereo not drawn), for which the TGI in the experiment on DLD-1 colon was 72.3 µM; in the experiment with DMS 273 small cell lung, 28.3 µM; in the experiment on HCT-116 colon it was 26.8 µM; with LXFL 529 NSCLC it was 37.2 µM; in the experiment on M14 melanoma, 27.8 µM; in the experiment on M19-MEL melanoma, 29.5 µM. The TGI was 40.9 µM in the experiment with NCI-H522 lung; greater than 100 µM in the experiment on OVCAR-8 ovarian; 33.1 µM with SF-295 CNS; 44.7 µM in the experiment on SNB-78 CNS; 27.5 µM in the experiment on XF 498 CNS.

In the case of `C=Cc1nc(C#N)c(N)o1`, the TGI with BT-549 breast, with HCT-116 colon, in the experiment with M14 melanoma, with MDA-N, in the experiment on NCI-H522 lung and in the experiment on OVCAR-8 ovarian was greater than 100 µM in each case. The molecule further showed a TGI in the experiment with SF-295 CNS greater than 100 µM.

Take `O=C1CS[C@@](CC(c2ccc(Cl)cc2)c2ccc(Cl)cc2)(c2ccc(Cl)cc2)N1`: the TGI in the experiment on BT-549 breast, in the experiment with HCT-116 colon, in the experiment on M14 melanoma, in the experiment on MDA-N, in the experiment on NCI-H522 lung and in the experiment with OVCAR-8 ovarian was greater than 100 µM throughout. This molecule registered a TGI with SF-295 CNS of 47.5 µM.

For `CNC(=S)NNc1ncnc2c1ncn2-c1ccc(C)cc1`, the TGI with BT-549 breast, with HCT-116 colon, in the experiment on M14 melanoma, with MDA-N, with NCI-H522 lung and with OVCAR-8 ovarian was greater than 100 µM throughout. The molecule also registered a TGI with SF-295 CNS greater than 100 µM.

For the molecule `CN(C)CCNC(=O)c1ccc(Cl)c2cc3ccccc3nc12`, the TGI in the experiment with BT-549 breast stood at 7.82 µM; in the experiment with HCT-116 colon, 5.48 µM; in the experiment on M14 melanoma, 2.62 µM; in the experiment with MDA-N, 2.21 µM; in the experiment on NCI-H522 lung it was 2.07 µM; in the experiment on OVCAR-8 ovarian, 6.44 µM. In the experiment on SF-295 CNS, this molecule came in with a TGI of 4.33 µM.

For `COc1c(C)c(C/C=C(\C)CC/C=C(\C)CC/C=C(\C)CCC=C(C)C)c(OC)c2ccccc12`, the TGI with BT-549 breast, in the experiment on HCT-116 colon, with M14 melanoma, in the experiment with MDA-N, with NCI-H522 lung and in the experiment on OVCAR-8 ovarian was greater than 100 µM throughout. In addition, in the experiment on SF-295 CNS, the TGI was greater than 100 µM.

Take `COc1ccc(CNc2nc3cc(C(F)(F)F)ccc3nc2-c2ccccc2)cc1OC`: the TGI in the experiment on BT-549 breast, in the experiment on HCT-116 colon, in the experiment on M14 melanoma, in the experiment with MDA-N, in the experiment on NCI-H522 lung and in the experiment with OVCAR-8 ovarian was greater than 100 µM in each case. The molecule further showed a TGI in the experiment with SF-295 CNS greater than 100 µM.
